Measured values published in ChEMBL document CHEMBL3997855, “Discovery of Fevipiprant (NVP-QAW039), a Potent and Selective DP2 Receptor Antagonist for Treatment of Asthma” (ACS Med Chem Lett, 2017).

Key:
[1] = biological target: T1, Prostaglandin D2 receptor 2 (Homo sapiens, UniProt Q9Y5Y4); test: Antagonist activity at DP2 receptor in human isolated eosinophils assessed as inhibition of DK-PGD2-induced shape change preincubated for 5 mins followed by DK-PGD2 addition measured after 5 mins by flow cytometry
T1 sequence (Q9Y5Y4 whole entry): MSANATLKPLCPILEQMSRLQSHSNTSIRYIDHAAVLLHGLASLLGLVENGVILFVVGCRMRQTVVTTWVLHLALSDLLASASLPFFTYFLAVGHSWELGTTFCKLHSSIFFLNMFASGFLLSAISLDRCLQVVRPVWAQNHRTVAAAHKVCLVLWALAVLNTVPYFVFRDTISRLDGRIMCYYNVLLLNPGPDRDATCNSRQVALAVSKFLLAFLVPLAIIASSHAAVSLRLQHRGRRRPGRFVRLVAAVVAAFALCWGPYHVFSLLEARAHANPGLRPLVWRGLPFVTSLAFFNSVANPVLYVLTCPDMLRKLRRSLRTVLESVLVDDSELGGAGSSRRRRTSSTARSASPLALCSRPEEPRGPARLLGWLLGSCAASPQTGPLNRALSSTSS

[2] = biological target: T1, Prostaglandin D2 receptor 2; test: Displacement of [3H]PGD2 from human DP2 receptor expressed in CHO cell membranes after 60 mins by scintillation proximity assay
[3] = biological target: T1, Prostaglandin D2 receptor 2; test: Displacement of [3H]NVP-QAW039 from human DP2 receptor expressed in CHO cell membranes by TopCount scintillation assay
[4] = biological target: T2, Prostaglandin D2 receptor 2 (Homo sapiens) (UniProt Q9Y5Y4)
T2 sequence (whole entry): T1 sequence (Q9Y5Y4 whole entry)
Description: Displacement of [3H]NVP-QAW039 from human DP2 receptor expressed in CHO cell membranes assessed as dissociation half life by TopCount scintillation assay

[5] = Half life in Wistar rat at 0.5 mg/kg, iv by LC-MS/MS analysis; format: ADME, organism-based; details: in vivo
[6] = Volume of distribution at steady state in Wistar rat at 0.5 mg/kg, iv or 3 mg/kg, po by LC-MS/MS analysis; format: ADME, organism-based; details: in vivo, read-out: Vdss
[7] = Oral bioavailability in Wistar rat at 3 mg/kg by LC-MS/MS analysis; format: ADME, organism-based; details: in vivo
[8] = Clearance in Wistar rat at 0.5 mg/kg, iv or 3 mg/kg, po by LC-MS/MS analysis; format: ADME, organism-based; details: in vivo

SMILES | IC50 [1] | Ki [2] | Kd [3] | T1/2 [4] | half-life [5] | Vd [6] | bioavailability [7] | clearance [8]
CCS(=O)(=O)c1ccc(Cn2c(C)c(CC(=O)O)c3cccnc32)cc1 | 0.004 µM | 0.05 µM |  |  |  |  |  | 
CCS(=O)(=O)c1ccc(Cn2c(C)c(CC(=O)O)c3cccnc32)c(C(F)(F)F)c1 | 0.0008 µM | 0.007 µM |  |  | 9.2 h | 1.2 L/kg | 97% | 0.174 L/h/kg
Cc1c(CC(=O)O)c2cccnc2n1Cc1ccc(C(F)(F)F)cc1C(F)(F)F | 0.014 µM |  |  |  |  |  |  | 
CCS(=O)(=O)c1ccc(Cn2c(C)c(CC(=O)O)c3cccnc32)c(Cl)c1 | 0.0013 µM | 0.006 µM | 0.00191 µM | 3.36 min | 7.7 h | 1.1 L/kg | 71% | 0.264 L/h/kg

The next lines start with the values.

IC50 [1] | Ki [2] | Kd [3] | T1/2 [4] | half-life [5] | Vd [6] | bioavailability [7] | clearance [8] | SMILES
0.02 µM | 0.019 µM | 0.0251 µM | 0.18 min |  |  |  |  | Cc1c(CC(=O)O)c2ccccc2n1Cc1ccc(S(C)(=O)=O)cc1
0.006 µM | 0.047 µM |  |  |  |  |  |  | CCc1ccc2c(CC(=O)O)c(C)n(Cc3ccc(S(C)(=O)=O)cc3)c2n1
 | 0.072 µM |  |  |  |  |  |  | Cc1ccc2c(CC(=O)O)c(C)n(Cc3ccc(S(C)(=O)=O)cc3)c2n1
 | 1.34 µM |  |  |  |  |  |  | Cc1cnc2c(c1)c(CC(=O)O)c(C)n2Cc1ccc(S(C)(=O)=O)cc1
